Tests used:
Type in all cases: cell-based
EGFR A767insASV = EGFR A767insASV (Homo sapiens, UniProt P00533, cells depend on it, form not given); assay: Ba/F3 cell viability, EGFR A767insASV; conditions: logarithm of IC50, second listing in Table 2 (r23)
Description: (§1) 72 hours after transduction, 2 μg/ml puromycin (Invitrogen) was added to the medium.

EGFR S768dupSVD/C797S = target: T1, EGFR S768dupSVD/C797S (Homo sapiens, UniProt P00533, C797S/DUP768-770); assay: Ba/F3 cell viability, EGFR S768dupSVD/C797S; conditions: logarithm of IC50
T1 construct: expressed in transfected cells; host or cells: Ba/F3 (retroviral transduction, pBABE-Puro-based vectors)
Description: as §1

EGFR H773L/V774M = target: T2, EGFR H773L/V774M (Homo sapiens, UniProt P00533, H773L/V774M); assay: Ba/F3 cell viability, EGFR H773L/V774M; conditions: logarithm of IC50
T2 construct: expressed in transfected cells; host or cells: Ba/F3 (retroviral transduction, pBABE-Puro-based vectors)
Description: as §1

EGFR P772insDNP = target: T3, EGFR P772insDNP (Homo sapiens, UniProt P00533, INS772DNP); assay: Ba/F3 cell viability, EGFR P772insDNP; conditions: logarithm of IC50
T3 construct: expressed in transfected cells; host or cells: Ba/F3 (retroviral transduction, pBABE-Puro-based vectors)
Description: as §1

EGFR S768I T790M = target: T4, EGFR S768I T790M (Homo sapiens, UniProt P00533, S768I/T790M); assay: Ba/F3 cell viability, EGFR S768I T790M; conditions: logarithm of IC50
T4 construct: expressed in transfected cells; host or cells: Ba/F3 (retroviral transduction, pBABE-Puro-based vectors)
Description: as §1

EGFR V769insGSV = target: T5, EGFR V769insGSV (Homo sapiens, UniProt P00533, INS769GSV); assay: Ba/F3 cell viability, EGFR V769insGSV; conditions: logarithm of IC50
T5 construct: expressed in transfected cells; host or cells: Ba/F3 (retroviral transduction, pBABE-Puro-based vectors)
Description: as §1

EGFR D770insNPG/C797S = target: T6, EGFR D770insNPG/C797S (Homo sapiens, UniProt P00533, C797S/INS770NPG); assay: Ba/F3 cell viability, EGFR D770insNPG/C797S; conditions: logarithm of IC50
T6 construct: expressed in transfected cells; host or cells: Ba/F3 (retroviral transduction, pBABE-Puro-based vectors)
T6 sequence (P00533 with tags, fused parts or gaps INS770NPG/C797S): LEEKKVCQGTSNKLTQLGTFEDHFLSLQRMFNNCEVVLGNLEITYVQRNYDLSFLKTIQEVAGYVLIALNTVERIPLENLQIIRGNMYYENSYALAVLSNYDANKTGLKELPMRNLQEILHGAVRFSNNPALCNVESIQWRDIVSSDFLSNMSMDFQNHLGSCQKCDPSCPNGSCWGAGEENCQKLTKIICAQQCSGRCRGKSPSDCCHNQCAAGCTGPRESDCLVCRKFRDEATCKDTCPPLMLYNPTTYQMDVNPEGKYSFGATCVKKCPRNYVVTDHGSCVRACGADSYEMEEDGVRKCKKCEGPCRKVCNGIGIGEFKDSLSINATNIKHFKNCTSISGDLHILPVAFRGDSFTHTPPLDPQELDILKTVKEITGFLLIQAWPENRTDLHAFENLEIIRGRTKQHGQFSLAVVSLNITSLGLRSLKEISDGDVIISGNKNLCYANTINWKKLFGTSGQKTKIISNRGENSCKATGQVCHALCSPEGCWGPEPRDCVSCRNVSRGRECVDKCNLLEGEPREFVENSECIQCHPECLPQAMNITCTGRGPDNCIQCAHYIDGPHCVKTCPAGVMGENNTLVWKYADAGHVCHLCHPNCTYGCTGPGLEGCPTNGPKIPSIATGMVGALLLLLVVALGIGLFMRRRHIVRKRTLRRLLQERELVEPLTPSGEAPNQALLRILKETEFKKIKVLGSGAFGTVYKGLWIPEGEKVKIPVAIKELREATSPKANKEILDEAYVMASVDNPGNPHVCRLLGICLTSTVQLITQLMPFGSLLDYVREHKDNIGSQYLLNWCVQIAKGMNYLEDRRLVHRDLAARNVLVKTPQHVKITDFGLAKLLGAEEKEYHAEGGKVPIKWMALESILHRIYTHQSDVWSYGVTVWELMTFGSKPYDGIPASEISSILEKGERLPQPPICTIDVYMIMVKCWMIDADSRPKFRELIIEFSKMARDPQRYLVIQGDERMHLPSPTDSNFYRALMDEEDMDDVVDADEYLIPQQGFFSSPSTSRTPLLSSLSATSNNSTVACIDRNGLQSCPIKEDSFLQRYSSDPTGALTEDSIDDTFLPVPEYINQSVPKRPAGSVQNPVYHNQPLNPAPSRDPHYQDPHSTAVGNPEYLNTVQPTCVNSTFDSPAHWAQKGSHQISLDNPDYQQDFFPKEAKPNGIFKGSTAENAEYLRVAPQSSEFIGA
Description: as §1

EGFR V769insGVV = target: T7, EGFR V769insGVV (Homo sapiens, UniProt P00533, INS769GVV); assay: Ba/F3 cell viability, EGFR V769insGVV; conditions: logarithm of IC50
T7 construct: expressed in transfected cells; host or cells: Ba/F3 (retroviral transduction, pBABE-Puro-based vectors)
Description: as §1

EGFR N771insSVDNR = target: T8, EGFR N771insSVDNR (Homo sapiens, UniProt P00533, INS771SVDNR); assay: Ba/F3 cell viability, EGFR N771insSVDNR
T8 construct: expressed in transfected cells; host or cells: Ba/F3 (retroviral transduction, pBABE-Puro-based vectors)
T8 sequence (P00533 with tags, fused parts or gaps INS771SVDNR): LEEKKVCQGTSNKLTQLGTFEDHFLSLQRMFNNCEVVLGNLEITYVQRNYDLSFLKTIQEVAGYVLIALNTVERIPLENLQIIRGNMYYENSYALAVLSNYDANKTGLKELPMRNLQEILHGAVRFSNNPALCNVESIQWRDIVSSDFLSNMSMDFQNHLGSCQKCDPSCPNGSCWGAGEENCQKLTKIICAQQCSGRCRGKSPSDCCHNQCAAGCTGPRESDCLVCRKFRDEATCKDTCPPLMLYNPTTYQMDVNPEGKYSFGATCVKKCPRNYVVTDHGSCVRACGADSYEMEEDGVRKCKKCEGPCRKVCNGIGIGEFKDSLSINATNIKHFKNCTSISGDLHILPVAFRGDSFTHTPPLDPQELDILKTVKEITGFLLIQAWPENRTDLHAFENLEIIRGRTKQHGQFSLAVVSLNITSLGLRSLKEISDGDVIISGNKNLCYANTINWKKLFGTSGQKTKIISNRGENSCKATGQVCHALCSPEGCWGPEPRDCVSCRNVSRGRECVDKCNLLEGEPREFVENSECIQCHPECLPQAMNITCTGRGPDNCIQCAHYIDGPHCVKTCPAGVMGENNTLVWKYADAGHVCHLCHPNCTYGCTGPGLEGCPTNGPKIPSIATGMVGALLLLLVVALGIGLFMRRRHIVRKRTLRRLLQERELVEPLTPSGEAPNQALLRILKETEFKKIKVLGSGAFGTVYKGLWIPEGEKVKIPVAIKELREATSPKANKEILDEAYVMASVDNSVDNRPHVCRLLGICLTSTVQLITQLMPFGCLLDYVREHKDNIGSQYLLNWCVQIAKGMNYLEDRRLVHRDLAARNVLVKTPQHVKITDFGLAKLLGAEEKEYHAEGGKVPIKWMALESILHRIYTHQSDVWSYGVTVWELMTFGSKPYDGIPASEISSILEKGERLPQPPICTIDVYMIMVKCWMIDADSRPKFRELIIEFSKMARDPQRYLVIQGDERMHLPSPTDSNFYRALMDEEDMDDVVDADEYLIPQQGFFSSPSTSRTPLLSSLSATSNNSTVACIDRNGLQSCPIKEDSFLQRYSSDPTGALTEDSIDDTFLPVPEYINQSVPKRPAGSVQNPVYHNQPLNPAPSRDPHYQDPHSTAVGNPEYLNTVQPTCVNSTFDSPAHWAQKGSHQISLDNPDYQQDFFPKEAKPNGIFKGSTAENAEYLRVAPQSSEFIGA
Description: as §1

EGFR D770insNPG/T790M = target: T9, EGFR D770insNPG/T790M (Homo sapiens, UniProt P00533, INS770NPG/T790M); assay: Ba/F3 cell viability, EGFR D770insNPG/T790M; conditions: logarithm of IC50
T9 construct: expressed in transfected cells; host or cells: Ba/F3 (retroviral transduction, pBABE-Puro-based vectors)
Description: as §1

EGFR N771insHH = target: T10, EGFR N771insHH (Homo sapiens, UniProt P00533, INS771HH); assay: Ba/F3 cell viability, EGFR N771insHH; conditions: logarithm of IC50
T10 construct: expressed in transfected cells; host or cells: Ba/F3 (retroviral transduction, pBABE-Puro-based vectors)
Description: as §1

EGFR D770del insGY = target: T11, EGFR D770del insGY (Homo sapiens, UniProt P00533, D770Y/INS769G); assay: Ba/F3 cell viability, EGFR D770del insGY; conditions: logarithm of IC50
T11 construct: expressed in transfected cells; host or cells: Ba/F3 (retroviral transduction, pBABE-Puro-based vectors)
Description: as §1

EGFR V769insMASVD = target: T12, EGFR V769insMASVD (Homo sapiens, UniProt P00533, INS769MASVD); assay: Ba/F3 cell viability, EGFR V769insMASVD; conditions: logarithm of IC50
T12 construct: expressed in transfected cells; host or cells: Ba/F3 (retroviral transduction, pBABE-Puro-based vectors)
Description: as §1

EGFR S768dupSVD/T790M = target: T13, EGFR S768dupSVD/T790M (Homo sapiens, UniProt P00533, DUP768-770/T790M); assay: Ba/F3 cell viability, EGFR S768dupSVD/T790M; conditions: logarithm of IC50
T13 construct: expressed in transfected cells; host or cells: Ba/F3 (retroviral transduction, pBABE-Puro-based vectors)
Description: as §1

EGFR WT = target: T14, EGFR WT (Homo sapiens, UniProt P00533); assay: Ba/F3 cell viability (Cell Titer Glo), WT EGFR
T14 construct: expressed in transfected cells; host or cells: Ba/F3 (retroviral transduction, pBABE-Puro-based vectors)
T14 sequence (P00533 25-1210): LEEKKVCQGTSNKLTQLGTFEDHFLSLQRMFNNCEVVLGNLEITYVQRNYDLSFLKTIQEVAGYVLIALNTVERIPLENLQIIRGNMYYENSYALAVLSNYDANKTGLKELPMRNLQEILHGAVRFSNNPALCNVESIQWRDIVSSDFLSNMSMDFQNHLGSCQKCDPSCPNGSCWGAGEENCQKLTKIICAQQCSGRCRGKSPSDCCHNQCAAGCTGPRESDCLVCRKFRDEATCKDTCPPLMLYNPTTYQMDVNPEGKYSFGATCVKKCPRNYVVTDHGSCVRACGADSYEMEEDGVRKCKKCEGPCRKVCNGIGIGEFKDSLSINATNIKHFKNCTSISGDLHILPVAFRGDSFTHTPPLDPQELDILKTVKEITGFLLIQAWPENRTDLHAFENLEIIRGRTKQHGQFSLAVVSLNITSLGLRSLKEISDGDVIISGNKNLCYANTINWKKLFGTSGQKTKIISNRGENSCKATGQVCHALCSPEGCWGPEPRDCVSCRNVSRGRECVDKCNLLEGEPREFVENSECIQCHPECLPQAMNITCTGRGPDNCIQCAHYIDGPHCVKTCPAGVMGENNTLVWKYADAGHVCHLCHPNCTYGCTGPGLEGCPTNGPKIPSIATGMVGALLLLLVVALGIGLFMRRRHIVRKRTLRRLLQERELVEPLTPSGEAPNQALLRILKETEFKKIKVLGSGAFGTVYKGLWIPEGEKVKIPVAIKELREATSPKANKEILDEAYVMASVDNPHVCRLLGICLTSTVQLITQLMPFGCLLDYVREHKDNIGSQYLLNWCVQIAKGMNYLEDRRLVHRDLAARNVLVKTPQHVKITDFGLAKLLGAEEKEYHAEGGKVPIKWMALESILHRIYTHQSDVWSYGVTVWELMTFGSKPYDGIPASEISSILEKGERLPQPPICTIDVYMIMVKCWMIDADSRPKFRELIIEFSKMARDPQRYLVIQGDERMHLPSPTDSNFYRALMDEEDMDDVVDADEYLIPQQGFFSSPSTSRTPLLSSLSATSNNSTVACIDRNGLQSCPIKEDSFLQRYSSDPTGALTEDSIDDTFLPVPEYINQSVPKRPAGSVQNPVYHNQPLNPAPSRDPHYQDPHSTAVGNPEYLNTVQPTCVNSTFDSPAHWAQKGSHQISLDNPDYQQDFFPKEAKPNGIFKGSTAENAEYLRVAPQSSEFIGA
Description: as §1

EGFR H773insAH = target: T15, EGFR H773insAH (Homo sapiens, UniProt P00533, INS773AH); assay: Ba/F3 cell viability, EGFR H773insAH; conditions: logarithm of IC50
T15 construct: expressed in transfected cells; host or cells: Ba/F3 (retroviral transduction, pBABE-Puro-based vectors)
Description: as §1

EGFR V769L = target: T16, EGFR V769L (Homo sapiens, UniProt P00533, V769L); assay: Ba/F3 cell viability, EGFR V769L; conditions: logarithm of IC50
T16 construct: expressed in transfected cells; host or cells: Ba/F3 (retroviral transduction, pBABE-Puro-based vectors)
Description: as §1

EGFR A767insTLA = target: T17, EGFR A767insTLA (Homo sapiens, UniProt P00533, INS767TLA); assay: Ba/F3 cell viability, EGFR A767insTLA; conditions: logarithm of IC50
T17 construct: expressed in transfected cells; host or cells: Ba/F3 (retroviral transduction, pBABE-Puro-based vectors)
T17 sequence (P00533 with tags, fused parts or gaps INS767TLA): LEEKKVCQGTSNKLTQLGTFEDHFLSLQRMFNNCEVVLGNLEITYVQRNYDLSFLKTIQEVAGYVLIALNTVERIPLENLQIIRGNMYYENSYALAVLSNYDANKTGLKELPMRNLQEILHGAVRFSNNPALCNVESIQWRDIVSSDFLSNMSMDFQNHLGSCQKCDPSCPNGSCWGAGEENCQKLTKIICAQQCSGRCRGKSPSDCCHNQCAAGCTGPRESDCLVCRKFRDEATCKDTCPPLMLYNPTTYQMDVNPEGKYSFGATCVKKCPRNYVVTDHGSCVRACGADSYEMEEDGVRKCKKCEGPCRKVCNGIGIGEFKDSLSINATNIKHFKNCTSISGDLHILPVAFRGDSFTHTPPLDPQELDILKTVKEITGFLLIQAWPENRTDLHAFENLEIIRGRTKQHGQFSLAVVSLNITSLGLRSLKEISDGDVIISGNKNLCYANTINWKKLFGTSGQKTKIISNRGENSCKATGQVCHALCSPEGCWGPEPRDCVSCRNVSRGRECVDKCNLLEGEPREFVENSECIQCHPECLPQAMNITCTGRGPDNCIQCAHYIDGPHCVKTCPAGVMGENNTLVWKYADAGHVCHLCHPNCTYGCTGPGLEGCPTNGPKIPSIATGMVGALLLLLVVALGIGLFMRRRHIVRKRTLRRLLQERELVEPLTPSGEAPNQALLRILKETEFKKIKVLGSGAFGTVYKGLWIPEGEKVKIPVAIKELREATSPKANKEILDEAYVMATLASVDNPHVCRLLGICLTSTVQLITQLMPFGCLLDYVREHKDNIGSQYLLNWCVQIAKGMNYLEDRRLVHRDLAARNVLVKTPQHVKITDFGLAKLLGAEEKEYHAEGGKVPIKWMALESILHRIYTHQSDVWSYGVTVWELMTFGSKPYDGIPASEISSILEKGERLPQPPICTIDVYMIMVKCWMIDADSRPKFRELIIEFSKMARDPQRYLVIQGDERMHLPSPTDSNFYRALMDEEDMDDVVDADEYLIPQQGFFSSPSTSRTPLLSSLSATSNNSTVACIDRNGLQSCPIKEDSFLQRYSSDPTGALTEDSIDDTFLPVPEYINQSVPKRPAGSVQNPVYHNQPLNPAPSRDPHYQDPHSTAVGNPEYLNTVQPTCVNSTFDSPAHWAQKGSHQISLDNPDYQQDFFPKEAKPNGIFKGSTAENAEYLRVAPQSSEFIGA
Description: as §1

| SMILES | Log(IC50, nM) (EGFR A767insASV) [nM] | Log(IC50, nM) (EGFR S768dupSVD/C797S) | Log(IC50, nM) (EGFR H773L/V774M) | Log(IC50, nM) (EGFR P772insDNP) | Log(IC50, nM) (EGFR S768I T790M) | Log(IC50, nM) (EGFR V769insGSV) | Log(IC50, nM) (EGFR D770insNPG/C797S) | Log(IC50, nM) (EGFR V769insGVV) | Log(IC50, nM) (EGFR N771insSVDNR; logarithm of IC50, first listing in Table 2 (r10)) | Log(IC50, nM) (EGFR N771insSVDNR; logarithm of IC50, second listing in Table 2 (r26)) | Log(IC50, nM) (EGFR D770insNPG/T790M) | Log(IC50, nM) (EGFR N771insHH) | Log(IC50, nM) (EGFR D770del insGY) | Log(IC50, nM) (EGFR V769insMASVD) | Log(IC50, nM) (EGFR S768dupSVD/T790M) | Log(IC50, nM) (EGFR WT; Ba/F3 EGFR WT, comparison line of Table 3) | Log(IC50, nM) (EGFR WT; logarithm of IC50, Ba/F3 cells expressing EGFR WT, Cell Titer Glo, 3 days, Table 2) | Log(IC50, nM) (EGFR H773insAH) | Log(IC50, nM) (EGFR V769L) | Log(IC50, nM) (EGFR A767insTLA) |
| --- | --- | --- | --- | --- | --- | --- | --- | --- | --- | --- | --- | --- | --- | --- | --- | --- | --- | --- | --- | --- |
| CN(C)C/C=C/C(=O)Nc1cc2c(Nc3ccc(Cl)c(Br)c3)ncnc2cn1 [Example 1, (E)-N-(4-((3-Bromo-4-chlorophenyl)amino)pyrido[3,4-d]pyrimidin-6-yl)-4-(dimethylamino)but-2-enamide] | 0.55 | – | – | – | – | – | – | – | – | – | – | – | – | – | – | – | – | – | – | – |
| CN(C)C/C=C/C(=O)Nc1cc2c(Nc3ccc(Cl)c(Cl)c3)ncnc2cn1 [Example 2, (E)-N-(4-((3,4-dichlorophenyl)amino)pyrido[3,4-d]pyrimidin-6-yl)-4-(dimethylamino)but-2-enamide] | 0.51 | 3.06 log(nM) | 1.41 log(nM) | 0.94 log(nM) | 0.81 log10(nM) | 0.98 log(nM) | 2.73 log10(nM) | 1.40 log(nM) | 0.98 log(nM) | 1.08 log(nM) | 2.40 log10(nM) | 0.33 log10(nM) | 0.71 log10(nM) | 0.88 log10(nM) | 2.73 log10(nM) | 1.03 log(nM) | 1.03 log(nM) | 0.88 log10(nM) | 0.98 log(nM) | 0.83 log(nM) |

Source: patent US20220194940A1, “HETEROCYCLIC INHIBITORS OF TYROSINE KINASE” (Board of Regents, The University of Texas System, priority 2019, published 2022)
